Results as given in patent US20230114083A1, “PHOTOACOUSTIC IMAGING AGENT” (National University Corporation Hokkaido University, priority 2021, published 2023).
Structures can show the parent of a compound that is named as a salt. Where two headings read alike, the source gives them in different places.

Experiment: Measurement of optical absorption spectrum and its pH dependence (ultraviolet visible spectrophotometer)
Type: physicochemical
Conditions: for pH dependence of absorption properties: phosphate buffers of various pH, 30% by volume DMSO; for pH dependence of absorption properties / absorption maxima: 1 μM; for absorption maxima / shift of maximum absorption wavelength: in DMSO; for shift of maximum absorption wavelength: aryl piperazine cyanines
Method: In order to investigate the optical absorption properties of the synthesized ICG derivatives, absorption spectra were measured and their pH dependence was examined using an ultraviolet visible spectrophotometer at a concentration of 1 μM either in dimethyl sulfoxide (DMSO) or in phosphate buffers of various pH with DMSO as a cosolvent (30% by volume of DMSO and 70% by volume of phosphate buffer).
For each ICG derivative, an absorption spectrum consisted of relative absorbance was obtained by setting the absorbance of the absorption peak near 700 nm in DMSO (absorbance at the maximum absorption wavelength) to 1.
The optical absorption spectra of the IGC derivative PBA-Cy was measured at various pH values in the same manner as in Example 1.
The optical absorption properties of the synthesized ICG derivatives (PPA-Cy and SS-PPA-Cy) were investigated in the same manner as in Example 1, and their pH dependence was examined.

[1] = phosphate buffers of various pH with DMSO as cosolvent, from pH dependence of absorption spectra, read-out: pKa

| absorption maxima | Compound | pH dependence of absorption properties | other results |
| --- | --- | --- | --- |
| – | 2-[2-[2-[4-(2-carboxyethyl)piperazinyl]-3-[2-[1,3-dihydro-3,3-dimethyl-1-(3-sulfopropyl)-7-sulfo-2H-benz[e]indol-2-ylidene]ethylidene]cyclohexen-1-yl]ethenyl]-3,3-dimethyl-1-(3-sulfopropyl)-7-sulfo-3H-benz[e]indolium, Inner Salt, Sodium Salt [SS-PPA-Cy] | the maximum absorption wavelength shifted to the longer wavelength side as the pH became more acidic | pKa: 6.8 |
| around 800 nm | 2-[2-[3-[2-[1,3-Dihydro-3,3-dimethyl-1-(3-sulfopropyl)-2H-benz[e]indol-2-ylidene]ethylidene]-2-(4-acetyl-1-piperazinyl)-1-cyclohexen-1-yl]ethenyl]-3,3-dimethyl-1-(3-sulfopropyl)-3H-benz[e]indolium, Inner Salt, Sodium Salt [AcP-Cy] | – | – |
| – | 2-[2-[3-[2-[1,3-dihydro-3,3-dimethyl-1-(3-sulfopropyl)-2H-benz[e]indol-2-ylidene]ethylidene]-2- [1-(4-nitrophenyl)-piperazinyl]-1-cyclohexen-1-yl]ethenyl]-3,3-dimethyl-1-(3-sulfopropyl)-3H-benz[e]indolium, Inner Salt, Sodium Salt [Nitro-PhP-Cy] | – | shift of maximum absorption wavelength: the maximum absorption wavelength was shifted to the longer wavelength side |
| ~700 nm | 2-[2-[3-[2-[1,3-dihydro-3,3-dimethyl-1-(3-sulfopropyl)-2H-benz[e]indol-2-ylidene]ethylidene]-2-(4-methyl-1-piperazinyl)-1-cyclohexen-1-yl]ethenyl]-3,3-dimethyl-1-(3-sulfopropyl)-3H-benz[e]indolium, Inner Salt, Sodium Salt [MP-Cy] | the maximum absorption wavelength shifted to the longer wavelength side as the pH became more acidic | – |
| around 800 nm | 2-[2-[3-[2-[1,3-dihydro-3,3-dimethyl-1-(3-sulfopropyl)-2H-benz[e]indol-2-ylidene]ethylidene]-2-(4-methylsulfonyl-1-piperazinyl)-1-cyclohexen-1-yl]ethenyl]-3,3-dimethyl-1-(3-sulfopropyl)-3H-benz[e]indolium, Inner Salt, Sodium Salt [MSP-Cy] | – | – |
| – | 2-[2-[3-[2-[1,3-dihydro-3,3-dimethyl-1-(3-sulfopropyl)-2H-benz[e]indol-2-ylidene]ethylidene]-2-[1-(4-cyanophenyl)-piperazinyl]-1-cyclohexen-1-yl]ethenyl]-3,3-dimethyl-1-(3-sulfopropyl)-3H-benz[e]indolium, Inner Salt, Sodium Salt [Nitrille-PhP-Cy] | – | shift of maximum absorption wavelength: the maximum absorption wavelength was shifted to the longer wavelength side |
| around 800 nm | CC1(C)C(=CC=C2CCCC(C=CC3=[N+](CCCS(=O)(=O)[O-])c4ccc5ccccc5c4C3(C)C)=C2N2CC[N+](C)(C)CC2)N(CCCS(=O)(=O)[O-])c2ccc3ccccc3c21 [DMP-Cy, 2-[2-[3-[2-[1,3-dihydro-3,3-dimethyl-1-(3-sulfopropyl)-2H-benz[e]indol-2-ylidene]ethylidene]-2-(4-dimethyl-1-piperaziniumyl)-1-cyclohexen-1-yl]ethenyl]-3,3-dimethyl-1-(3-sulfopropyl)-3H-benz[e]indolium, Inner Salt, Sodium Salt] | – | – |
| – | CC1(C)C(/C=C/C2=C(N3CCN(Cc4ccc(CC(=O)O)cc4)CC3)C(=C/C=C3/N(CCCS(=O)(=O)[O-])c4ccc5ccccc5c4C3(C)C)/CCC2)=[N+](CCCS(=O)(=O)[O-])c2ccc3ccccc3c21.[Na+] [PBA-Cy, 2-[2-[3-[2-[1,3-dihydro-3,3-dimethyl-1-(3-sulfopropyl)-2H-benz[e]indol-2-ylidene]ethylidene]-2-[1-(4-carboxymethylbenzyl)-piperazinyl]-1-cyclohexen-1-yl]ethenyl]-3,3-dimethyl-1-(3-sulfopropyl)-3H-benz[e]indolium, Inner Salt, Sodium Salt] | shifted to the longer wavelength side as the pH became more acidic | pKa [1]: 4.9; molar absorption coefficient (used to calculate PBA-Cy concentration in conjugate solution): 32,000 M^−1 cm^−1 |
| – | CC1(C)C(/C=C/C2=C(N3CCN(CCC(=O)[O-])CC3)C(=C/C=C3/N(CCCS(=O)(=O)[O-])c4ccc5ccccc5c4C3(C)C)/CCC2)=[N+](CCCS(=O)(=O)[O-])c2ccc3ccccc3c21.[Na+].[Na+] [PPA-Cy, 2-[2-[2-[4-(2-carboxyethyl)piperazinyl]-3-[2-[1,3-dihydro-3,3-dimethyl-1-(3-sulfopropyl)-2H-benz[e]indol-2-ylidene]ethylidene]-1-cyclohexenyl]ethenyl]-3,3-dimethyl-1-(3-sulfopropyl)-3H-benz[e]indolium, Inner Salt, Sodium Salt] | the maximum absorption wavelength shifted to the longer wavelength side as the pH became more acidic | pKa [1]: 5.7 |
| ~700 nm | CC1(C)C(=CC=C2CCCC(C=CC3=[N+](CCCS(=O)(=O)[O-])c4ccc5ccccc5c4C3(C)C)=C2N2CCCCC2)N(CCCS(=O)(=O)[O-])c2ccc3ccccc3c21.[Na+] [Piperi-Cy, 2-[2-[3-[2-[1,3-dihydro-3,3-dimethyl-1-(3-sulfopropyl)-2H-benz[e]indol-2-ylidene]ethylidene]-2-(1-piperidinyl)-1-cyclohexen-1-yl]ethenyl]-3,3-dimethyl-1-(3-sulfopropyl)-3H-benz[e]indolium, Inner Salt, Sodium Salt] | – | – |

| Compound | absorption maxima | pH dependence of absorption properties | other results |
| --- | --- | --- | --- |
| CC1(C)C(/C=C/C2=C(N3CCOCC3)C(=C/C=C3/N(CCCS(=O)(=O)[O-])c4ccc5ccccc5c4C3(C)C)/CCC2)=[N+](CCCS(=O)(=O)[O-])c2ccc3ccccc3c21.[Na+] [Mor-Cy, 2-[2-[3-[2-[1,3-dihydro-3,3-dimethyl-1-(3-sulfopropyl)-2H-benz[e]indol-2-ylidene]ethylidene]-2-(4-morpholinyl)-1-cyclohexen-1-yl]ethenyl]-3,3-dimethyl-1-(3-sulfopropyl)-3H-benz[e]indolium, Inner Salt, Sodium Salt] | ~700 nm | no change in absorption properties due to the pH | – |
